Where a name gives a salt, the structure may show the parent alone. Read-outs that look alike come from different tables or passages of the source.

The conditions of data set [1]: dog, in vivo, po.
Data set [2] can be described thus: in vivo. To be noted: beagle, dog, po, 1 mg, Meptazinol AUCt.
For data set [3] the following is noted: dog, in vivo.
A short description of data set [4]: in vivo. To be noted: dog.
The conditions of data set [5]: cited from earlier work.
For data set [6] the following is noted: dog, in vivo. The source holds these as a separate data set.

By AUC(0-t) is commonly meant exposure summed from dosing to a finite time, without extrapolation to infinity. Lower therefore signals low exposure. On to `CCC1(c2cccc(O)c2)CCCCN(C)C1` (stereo not drawn) [Meptazinol HCl], for which the “AUC (mean ngh/mL ± SD)” value in data set [1] is listed as 15.6 ± 7.4. For the same compound, the AUC(0-t) in “in vivo [2]” amounted to 5.87 ng·h/mL.

For orientation: AUC means concentration integrated over time. Read a low AUC as low exposure. The term Cmax denotes the maximum level reached in the sampled fluid or tissue. For `CC(C)[C@H](NC(=O)Oc1ccc2c3c1OC1C(=O)CC[C@@]4(O)[C@@H](C2)N(C)CC[C@]314)C(=O)O` (stereo partly drawn) [Oxymorphone valine carbamate HCl, (S)-2-[(4,5-Epoxy-14-hydroxy-17-methylmorphinan-6-one-3-yl)-oxycarbonylamino]-3-methylbutanoic acid Hydrochloride], the “Mean relative bioavailability %” value in data set [3] (Beagle, 0.5 mg/kg) came out at 816%. Also, the “Cmax (mean ng/mL ± SD)” value in data set [3] (Beagle, po, 0.5 mg/kg) is recorded as 21.6 ± 7.2 ng/mL. Further, the “plasma levels of the prodrug relative to the drug itself” value in data set [3] (beagle, po) is given as “approx. 4 fold”. In data set [3] (po), the “AUC (mean ngh/mL ± SD)” value was 94.4 ± 33.3 and the “time for which plasma drug levels were maintained above 50% of Cmax, prodrug vs drug itself” value was “almost twice as long”. The AUC in “in vivo [4]” (Beagle, po, 0.5 mg, Oxymorphone valine carbamate AUC) amounted to 234 ng·h/mL. In addition, in “in vivo [4]” (Beagle, po, 0.5 mg, Oxymorphone valine carbamate AUCt), the AUC(0-t) was 232 ng·h/mL. Further, in the data set “in vivo [4]” (Beagle, po, 0.5 mg, Oxymorphone valine carbamate Cmax), the Cmax is 75 ng/mL.

For the compound `CCC1(c2cccc(O)c2)CCCCN(C)C1` (stereo not drawn) [meptazinol, 3-(3-Ethyl-1-methyl-azepan-3-yl)-phenol], the “relative standard deviation (variability in meptazinol levels, mean AUC)” value in data set [1] (beagle) is on record as 26%. The “Meptazinol AUC” value in data set [1] (beagle, 1 mg) was found to be 12.8±3.4. In data set [5] (oral, Norbury et al. (1983)), the “range of observed oral bioavailabilities” value was 2-20% and the “reported mean bioavailability values” was 4-9%. For the same compound, in data set [5] (oral), the “oral dose removed as it passes through the liver (first pass metabolism)” value is given as “up to 98%”. Moreover, in data set [5] (rectal formulation, Murray et al. (1989)), the bioavailability was 15-20%.

On to `COC12CCC3(CC1C(C)(O)C(C)(C)C)C1Cc4ccc(OC(=O)NC(Cc5ccccc5)C(=O)O)c5c4C3(CCN1CC1CC1)C2O5` (stereo not drawn) [Buprenorphine phenylalanine carbamate], for which the “pH 10.0 buffer: % remaining after 2 h/20° C.” value (buffer, pH 10) was determined as 74%. For the same compound, the “Distilled water (pH 5.9): % remaining after 2h/20° C.” value (pH 5.9) is given as 99%. For the same compound, the “Simulated gastric fluid (pH 1.1): % remaining after 2 h/37° C.” value (simulated gi fluid, pH 1.1) is listed as 100%. Also, where the note is “simulated gi fluid, pH 6.8”, the “Simulated intestinal fluid (pH 6.8): % remaining after 2 h/37° C.” value was 45%. In data set [6], the “AUC (mean ngh/mL ± SD)” value was determined as 9.66 ± 1.92, the “Cmax (mean ng/mL ± SD)” value was 0.86 ± 0.32 ng/mL and the “Mean relative bioavailability %” value was 84.5%.

For the compound `CN1CC[C@]23c4c5ccc(O)c4O[C@H]2C(=O)CC[C@@]3(O)[C@H]1C5` [oxymorphone, 14-hydroxydihydromorphinone], in data set [5] (Adams and Ahdieh (2005)), the half life is reported as ~7 h. Also, the “food effect: increase of Cmax values” in data set [5] (Opana FDA labeling) is given as ≤ 38%. Further, the absolute oral bioavailability in data set [5] (Sloan et al. (2005)) is given as 10%. For the same compound, the AUC in the data set “in vivo [4]” (iv, intravenous AUC value) came to 146 ng·h/mL.

These data come from patent US20090186832A1 (priority 2008, published 2009).
